Data published in publication PMC12002301, “Discovery and functional characterization of a bombesin-type neuropeptide signaling system in an invertebrate” (Proceedings of the National Academy of Sciences of the …, 2025).
“Also recorded” adds a separate entry of the source.

Test system: ArBNR1
Assay: Luminescence (GFP-aequorin Ca2+) assay, CHO-K1 cells coexpressing ArBNR1 and Gqs5
Type: cell-based, Asterias rubens
Conditions: ArBNR1, words
Procedure: Having investigated relationships of eleven A. rubens BN-type receptor candidates (ArBNR1-11) with BN-type, ET-type, and CCHa/EP-type receptors in other taxa, ArBNR1 was identified as the best candidate and therefore this was selected for experimental testing. However, two other receptors (ArBNR2 and ArBNR3) were also tested. The methods employed for functional characterization of A. rubens neuropeptide receptors have been described previously ([57]) and a description of the methods employed in this study is included in SI Appendix, SI Methods. […]
As a complement to use of CLANS, phylogenetic trees were generated with the maximum-likelihood method (1000 bootstrap replicates) using One Step Build a ML Tree plugin in TBtools (12), specifying orexin-type receptors as an outgroup. […] Tree_B analysed the branch of tree_A containing ArBNR1; tree_C analysed the branch of tree_A containing ArBNR2; tree_D analysed the branch of tree_A containing ArBNR3; tree_E analysed the branch of tree_A containing ArBNR4, ArBNR5 and ArBNR6; tree_F analysed the branch of tree_A containing ArBNR7; tree_G analysed the branch of tree_A containing ArBNR8; tree_H analysed the branch of tree_A containing ArBNR9 and tree_I analysed the branch of tree_A containing ArBNR10 and ArBNR11. […]
identical to residues 18 - 270 of the protein XP_033631283.1, which was determined from genome […]

EPMPSSLALYIANLSP-NH2 [ArBNP65-81, C-terminally amidated 16-residue peptide predicted to be derived from residues 65 to 81 of ArBNP]
peptide-induced luminescence: did not trigger luminescence; also recorded: peptide-induced luminescence was only observed with ArBN5-14
